Measured values from patent US20220378789A1, “METHODS OF ADMINISTERING ELAGOLIX IN ASSOCIATION WITH ARTIFICIAL REPRODUCTIVE TECHNOLOGIES” (priority 2021, published 2022).
Non-standard residues stand in square brackets, D forms with d. Residues, ends and D or L forms follow the SMILES beside them. d(hArg(Et2)) = CCN=C(NCC)NCCCC[C@@H](N)C(=O)O; hArg(Et2) = CCN=C(NCC)NCCCC[C@H](N)C(=O)O; dPhe(4-Cl) = N[C@H](Cc1ccc(Cl)cc1)C(=O)O; d2Nal = N[C@H](Cc1ccc2ccccc2c1)C(=O)O; d3Pal = N[C@H](Cc1cccnc1)C(=O)O

Columns and labels:
GnRH receptor [1] = target: T1, GnRH receptor (Homo sapiens, UniProt P30968); experiment: Cohort study of oocyte donors in an assisted reproductive technology cycle: ovulation suppression during ovarian stimulation; assay type: in vivo; settings: for premature ovulation: Elagolix 200 mg PO QHS vs Ganirelix 250 mcg SQ QHS, 75 donors per group; for Avg. Peak Estradiol / Avg. Peak LH / Avg. Peak Progesterone / Days of Stimulation / Avg. Matures Oocytes / Avg. Oocytes / Avg. Cum GN Dose: group mean; for Avg. Matures Oocytes: mature oocytes at retrieval; for Avg. Oocytes: oocytes retrieved; for Avg. Cum GN Dose: total gonadotropins consumed per cycle
T1 construct: from tissue; host or cells: anterior pituitary gland of the oocyte donors (in vivo)
T1 sequence (P30968 1-328): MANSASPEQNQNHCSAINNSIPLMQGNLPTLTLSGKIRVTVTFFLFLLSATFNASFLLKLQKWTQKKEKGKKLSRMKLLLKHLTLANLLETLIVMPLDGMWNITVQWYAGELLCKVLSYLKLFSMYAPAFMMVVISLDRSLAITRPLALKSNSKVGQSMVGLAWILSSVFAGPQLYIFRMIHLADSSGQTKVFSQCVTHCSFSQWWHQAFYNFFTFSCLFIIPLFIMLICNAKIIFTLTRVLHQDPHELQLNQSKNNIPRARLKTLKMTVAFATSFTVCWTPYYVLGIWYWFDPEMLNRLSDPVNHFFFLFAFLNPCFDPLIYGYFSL
Experimental: An example of a method of the present disclosure includes a Western IRB approved (WIRB® Protocol #20191163) cohort study of 75 oocyte donors undergoing an assisted reproductive technology cycle receiving Elagolix 200 mg PO QHS for ovulation suppression compared to 75 historical donors given Ganirelix 250 mcg SQ QHS. Ovarian stimulation involved 10 days of oral contraceptive pretreatment. A recombinant FSH (Gonal F) starting dosage was based on donor age, AMH and BMI. 20 U HCG addback was given throughout the cycle with antagonists administered with a lead follicle of greater than 14 mm. […] Secondary outcomes are the number of mature oocytes at oocyte retrieval, the maximum estradiol level, the total amount of gonadotropins consumed, and the number of injections and patient cost.
The study medication was an orally bioavailable GnRH antagonist marketed by ABBVIE under the brand name ORILISSA® (Elagolix). The 200 mg dose was administered orally with once daily dosing.
A study comprised 75 oocyte donors from whom data for 75 assisted reproductive technology cycles over the course of a two-year period was collected. Upon completion of data collection, a treatment group and an age and weight-matched control group were compared and assessed on the basis of demographic data, health history, ovarian reserve, and information regarding their ovarian stimulation cycles using Pearson χ2 and Student's t-tests. The primary outcome—premature ovulation rate—was evaluated using Chi squared tests. The secondary outcomes—number of mature oocytes, the maximum estradiol level, and the total amount of gonadotropins consumed—were compared using Student's t-tests.
Protocol for Oocyte Donation with Elagolix for Ovulation Suppression 1. Prospective donor accepted into FDA-accredited egg donation program after successful completion of screening and the signing of the medical consent forms. 2. Oocyte donor given opportunity to volunteer to participate in the study. Oocyte donor given an IRB approved informed consent document and HIPAA authorization for Oocyte Donation with Elagolix for Ovulation Suppression Protocol. 3. Oocyte donor begins oral contraceptives to lead into ovarian stimulation. 4. Oocyte donor discontinues oral contraceptives after 10 to 14 days of administration. 5. 3 days after discontinuing oral contraceptives, oocyte donor begins daily SQ injections of rFSH with the dose based upon age, follicle stimulating hormone (FSH), antimullerian hormone (AMH) and antral follicular count. 6. On day 4 of rFSH medications, the practitioner obtains an estradiol level from an oocyte donor. The rFSH dose will be adjusted as necessary. 7. At 2 to 3 days intervals of medications, the practitioner obtains an estradiol level and performs a transvaginal ultrasound for oocyte donor; an rFSH dose will be adjusted according to the results of the estradiol level and transvaginal ultrasound. 8. Once a 14 mm lead follicle is noted on the ultrasound, the practitioner administers 20 U per day of SQ hCG along with Elagolix 200 mg PO QD, taken at 10 pm. Elagolix is administered for a minimum of 1 day and a maximum of 6 days. 9. Administration of Elagolix 200 mg PO QD is discontinued 24 hours prior to the ovulatory, GnRH agonist trigger. 10. Ovarian stimulation is continued as outlined until oocyte maturity is reached based on follicular number, follicular size, cycle day and estradiol levels, at which time an ovulatory, GnRH agonist was used to induce ovulation and egg retrieval was performed per protocol. All mature eggs are either fertilized with the intended parent's sperm or cryopreserved for future used in egg donation.

GnRH receptor [2] = target: T1, GnRH receptor; settings: cited from earlier work
[3] = oral administration; cited from earlier work

Row | Structure (SMILES) | premature ovulation (GnRH receptor [1]) | Avg. Peak Estradiol (GnRH receptor [1]) | Avg. Peak LH (GnRH receptor [1]) | Avg. Peak Progesterone (GnRH receptor [1]) | Days of Stimulation (GnRH receptor [1]) | Avg. Matures Oocytes (GnRH receptor [1]) | Avg. Oocytes (GnRH receptor [1]) | Avg. Cum GN Dose (GnRH receptor [1]) | LH levels (GnRH receptor [2]; 4 hours after administration of a single dose) | time for LH concentrations to rebound to about baseline levels or above (GnRH receptor [2]; after the last dose, all dose levels) [h] | anovulatory concentrations (GnRH receptor [2]; all participants at doses of 100 mg BID or higher, maintained throughout the 7-day study with daily dosing) | estradiol concentration at maximum suppression (GnRH receptor [2]; all participants at doses of 200 mg BID and higher) [pg/mL] | estradiol remaining partially suppressed (GnRH receptor [2]; at 24 hours, most groups) | safety profile (GnRH receptor [2]; doses up to 400 mg twice per day (BID)) | adverse events (GnRH receptor [2]; healthy premenopausal women) | tolerability (GnRH receptor [2]; healthy premenopausal women) | dose giving maximum inhibition of LH (GnRH receptor [2]; more sustained suppression at higher doses) [mg BID] | estimated half-life (t1/2) [3] [h] | median time of maximum plasma concentration (Tmax) [3] [h]
1 | CCN=C(NCC)NCCCC[C@H](NC(=O)[C@H](CC(C)C)NC(=O)[C@@H](CCCCNC(=NCC)NCC)NC(=O)[C@H](Cc1ccc(O)cc1)NC(=O)[C@H](CO)NC(=O)[C@@H](Cc1cccnc1)NC(=O)[C@@H](Cc1ccc(Cl)cc1)NC(=O)[C@@H](Cc1ccc2ccccc2c1)NC(C)=O)C(=O)N1CCC[C@H]1C(=O)N[C@H](C)C(N)=O [Ganirelix] (Ac-[d2Nal][dPhe(4-Cl)][d3Pal]SY[d(hArg(Et2))]L[hArg(Et2)]P[dA]-NH2) | no instances of premature ovulation | 3764 | 1.3 | 2.3 | 10.06 | 25.42 | 30.55 | 2741 | – | – | – | – | – | – | – | – | – | – | –
2 | COc1cccc(-c2c(C)n(Cc3c(F)cccc3C(F)(F)F)c(=O)n(C[C@H](NCCCC(=O)[O-])c3ccccc3)c2=O)c1F.[Na+] [Elagolix, 4-((R)-2-[5-(2-fluoro-3-methoxy-phenyl)-3-(2-fluoro-6-trifluoromethyl-benzyl)-4-methyl-2,6-dioxo-3,6-dihydro-2H-pyrimidin-1-yl]-1-phenyl-ethylamino)-butyric acid sodium salt] | no instances of premature ovulation | 3959 | 0.94 | 1.9 | 10.49 | 24.73 | 30.31 | 2855 | 22-35 % baseline | 24 to 48 | Anovulatory concentrations were observed in all participants | ~11.8 | 42-65 % of baseline | acceptable safety profile | No clinically significant adverse events occurred | well tolerated | ≥ 200 | 4 to 6 | 0.5 to 1
